Data: patent US20050106114A1, “Process for improving the sun protection factor of cellulosic fibre material” (priority 2002, published 2005)

Assays:
[1] = Sun Protection Factor of treated fabric, AS/NZS 4399:1996, Melbourne sunlight; settings: Cotton-Poplin; bleached, then fresh bath with 0.01% UV absorber (102) followed by 0.2% compound (101), relative to fabric weight; average of 4 measurements
Source text: (§1) The sun protection factor is defined as the ratio of the harmful dose of UV energy on protected skin to the harmful dose of UV energy on unprotected skin. Accordingly, a sun protection factor is also a measure of the transmissivity of fibre materials untreated and of those treated with FWA's and reactive UV absorbers described in this invention.
(§2) The sun protection factor can be determined, for example, by the method described by B. L. Diffey and J.Robson in J.Soc.Cosmet.Chem., 40, 127-133 (1989).
(§3) Two samples each of 10 g. of a pre-washed cellulose fabric (cotton cretonne) are treated in an AHIBA® dyeing machine for 60 minutes at 95° C. at a liquor ratio of 1:20 in two different aqueous liquors.
(§4) A) 3.0 ml/l hydrogen peroxide 35% • 2.0 ml/l sodium silicate 38° Bé • 2.0 ml/l caustic soda 36° Bé • 0.5 g/l ULTRAVON EL
(§5) B) The same liquor as in A), but containing additionally • 0.012% compound of formula (101) according to Example 1.
If the procedure of Example 9 is repeated, but with samples of different cellulose fabric (cotton poplin) the results of the following table are obtained.
Two samples each of 10 g. of a pre-washed cellulose fabric (cotton cretonne or cotton poplin, respectively) are treated in an AHIBA® dyeing machine for 60 minutes at 95° C. at a liquor ratio of 1:20 in an aqueous liquor containing: […]

[2] = as above; settings: Cotton-cretone; bleached, then fresh bath with 0.01% UV absorber (102) followed by 0.2% compound (101), relative to fabric weight; average of 4 measurements
Source text: as §1, §2, §3, §4, §5
Two samples each of 10 g. of a pre-washed cellulose fabric (cotton cretonne or cotton poplin, respectively) are treated in an AHIBA® dyeing machine for 60 minutes at 95° C. at a liquor ratio of 1:20 in an aqueous liquor containing:
The samples are then treated for 10 minutes at 40° C. at a liquor ratio of 1:20 in a fresh bath containing 0.01% (relative to the weight of the fabric) of the compound of the formula [drawing 25] […]

CCOc1ccc(NC(=O)C(=O)Nc2ccc(Nc3nc(Cl)nc(Nc4ccc(S(=O)(=O)CCOS(=O)(=O)[O-])cc4)n3)cc2)cc1S(=O)(=O)[O-].[Na+].[Na+] [compound (102)]
SPF value [1]: additional improvement | SPF value [2]: additional improvement
